Details in the first series: not given
`COP(=S)(OC)Oc1cc(Cl)c(Br)cc1Cl` came in with a logP of 4.88.
`CCOP(=O)(OCC)Oc1cc(C)nc(C(C)C)n1` registered a logP of 2.07.
The same measure, in the same setting: the figure for `CCOP(=S)(OCC)SCCS(=O)(=O)CC` is 1.87.
On the same count and under the same terms, the figure for `CCOP(=S)(OCC)Oc1ccc(N)cc1` is 2.6.
In turn, `CCOP(=O)(OCC)Oc1ccc([N+](=O)[O-])cc1` showed a logP of 1.98.
`CCOP(=O)(OCC)SCS(=O)(=O)CC` displayed a logP of 1.98.
On the same count and under the same terms, the figure for `CCOP(=S)(OCC)Oc1ccc(S(C)=O)cc1` (centres undefined) is 2.23; for `COP(=O)(Oc1cc(Cl)c(Br)cc1Cl)c1ccccc1` (centres undefined) it is 4.58.
Same read-out and setting: to `COP(=O)(OC)SCn1nnc2ccccc2c1=O` belongs 0.78; to `CCOP(=S)(OCC)Oc1cc(C)nc(N(CC)CC)n1`, 4.85; to `COP(=S)(OC)SCSc1ccc(Cl)cc1`, 4.82.
In turn, `CCOP(=S)(OCC)Oc1cc(C)nc(C(C)C)n1` showed a logP of 3.81.
`CCOP(=S)(OCC)Oc1cc(Cl)c(Br)cc1Cl` gave a logP of 5.68.
For `COP(=S)(Oc1cc(Cl)c(Br)cc1Cl)c1ccccc1` (centres undefined), the logP amounted to 5.88.
Same read-out and setting: to `COP(=S)(OC)SCN1C(=O)c2ccccc2C1=O` belongs 2.78.
Same read-out and setting: the figure for `CCOP(=S)(OCC)Oc1ccc(S(C)(=O)=O)cc1` is 2.56; for `CCOP(=S)(OCC)Oc1ccc(SC)cc1` it is 4.16; for `Cc1cc(Cl)ccc1/N=C/N(C)C` it is 2.89.

The series is the same for the next values; noted with them: pH 9.0.
The compound `CNC(=O)Oc1ccc(N(C)C)c(C)c1` displayed a logD of 1.9.

Broadly, the logP is the decadic logarithm of the partition coefficient of the neutral form, usually between octanol and water. The low end stands for lower lipophilicity, the high end for higher lipophilicity. One may read the logD as the decadic logarithm of the distribution of all forms, ionised or not, between an organic phase and buffer at a given pH.

Values taken from the SangsterLogP compilation.
